Measurements reported in the supplement of paper PMC13207355.
Counter-ions that a name gives are not always drawn.

Experiments:
Conditions in all cases: exposure time: 72 h
[1] = system: E13 (patient-derived glioblastoma stem cells of classical subtype); test: surviving fraction (nuclei count normalised to DMSO); higher = more cells surviving (less toxic)
[2] = system: E21 (patient-derived glioblastoma stem cells of mesenchymal subtype); test: as above
[3] = system: E28 (patient-derived glioblastoma stem cells of classical subtype); test: as above
[4] = system: E31 (patient-derived glioblastoma stem cells of proneural subtype); test: as above
[5] = system: E34 (patient-derived glioblastoma stem cells of proneural subtype); test: as above
[6] = system: E57 (patient-derived glioblastoma stem cells of mesenchymal subtype); test: as above
[7] = system: FT3469 (normal neural stem cell line); test: as above
[8] = system: E13; test: phenotypic distance (Euclidean, principal components) from DMSO controls (arbitrary units); higher = stronger morphological change
[9] = system: E21; test: as above
[10] = system: E28; test: as above
[11] = system: E31; test: as above
[12] = system: E34; test: as above
[13] = system: E57; test: as above
[14] = system: FT3469; test: as above
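For phenotypic distance (Euclidean, principal components) from DMSO controls in this document: cell Painting imaging in 384-well plates, CellProfiler features reduced to at least 20 principal components, Euclidean distance versus same-plate DMSO vehicle wells (0.1% v/v), median over six images per well.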
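For surviving fraction (nuclei count normalised to DMSO) in this document: nuclei counted by high-content imaging of Hoechst-stained cells in laminin-coated 384-well plates, relative to 0.1% DMSO vehicle wells, with staurosporine as cell-death control.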

CC(C)NCC(O)c1ccc(O)c(O)c1 (stereo unspecified) [Isoproterenol hydrochloride]
Conditions	phenotypic distance	surviving fraction
[1], 4.1 nM	–	0.935
[1], 12.3 nM	–	0.961
[1], 37 nM	–	1.01
[1], 111.1 nM	–	0.949
[1], 333.3 nM	–	0.974
[1], 1000 nM	–	0.842
[1], 3000 nM	–	1
[2], 4.1 nM	–	0.983
[2], 12.3 nM	–	0.836
[2], 37 nM	–	0.946
[2], 111.1 nM	–	0.954
[2], 333.3 nM	–	0.957
[2], 1000 nM	–	1.03
[2], 3000 nM	–	0.989
[3], 4.1 nM	–	1.14
[3], 12.3 nM	–	1.19
[3], 37 nM	–	1.05
[3], 111.1 nM	–	1.09
[3], 333.3 nM	–	1.17
[3], 1000 nM	–	1.1
[3], 3000 nM	–	1.22
[4], 4.1 nM	–	0.999
[4], 12.3 nM	–	1.05
[4], 37 nM	–	0.967
[4], 111.1 nM	–	0.989
[4], 333.3 nM	–	1.02
[4], 1000 nM	–	1.27
[4], 3000 nM	–	1.24
[5], 4.1 nM	–	1.03
[5], 12.3 nM	–	1
[5], 37 nM	–	1.13
[5], 111.1 nM	–	1.09
[5], 333.3 nM	–	1.15
[5], 1000 nM	–	1.11
[5], 3000 nM	–	1.11
[6], 4.1 nM	–	1.01
[6], 12.3 nM	–	0.941
[6], 37 nM	–	0.999
[6], 111.1 nM	–	0.974
[6], 333.3 nM	–	1.12
[6], 1000 nM	–	1.14
[6], 3000 nM	–	1.11
[7], 4.1 nM	–	0.975
[7], 12.3 nM	–	1.04
[7], 37 nM	–	0.928
[7], 111.1 nM	–	1.15
[7], 333.3 nM	–	1.18
[7], 1000 nM	–	1.04
[7], 3000 nM	–	1.1
[8], 4.1 nM	1.71	–
[8], 12.3 nM	1.34	–
[8], 37 nM	1.11	–
[8], 111.1 nM	0.927	–
[8], 333.3 nM	0.863	–
[8], 1000 nM	0.656	–
[8], 3000 nM	0.895	–
[9], 4.1 nM	1.03	–
[9], 12.3 nM	0.961	–
[9], 37 nM	0.559	–
[9], 111.1 nM	0.37	–
[9], 333.3 nM	0.707	–
[9], 1000 nM	0.442	–
[9], 3000 nM	0.786	–
[10], 4.1 nM	1.26	–
[10], 12.3 nM	0.749	–
[10], 37 nM	0.577	–
[10], 111.1 nM	0.661	–
[10], 333.3 nM	0.903	–
[10], 1000 nM	0.652	–
[10], 3000 nM	0.87	–
[11], 4.1 nM	3.31	–
[11], 12.3 nM	0.604	–
[11], 37 nM	0.63	–
[11], 111.1 nM	0.645	–
[11], 333.3 nM	0.706	–
[11], 1000 nM	0.745	–
[11], 3000 nM	0.88	–
[12], 4.1 nM	0.806	–
[12], 12.3 nM	0.933	–
[12], 37 nM	0.861	–
[12], 111.1 nM	0.633	–
[12], 333.3 nM	0.9	–
[12], 1000 nM	0.781	–
[12], 3000 nM	0.963	–
[13], 4.1 nM	0.878	–
[13], 12.3 nM	0.696	–
[13], 37 nM	0.871	–
[13], 111.1 nM	1.09	–
[13], 333.3 nM	1.1	–
[13], 1000 nM	3.04	–
[13], 3000 nM	1.28	–
[14], 4.1 nM	1.05	–
[14], 12.3 nM	0.977	–
[14], 37 nM	1.54	–
[14], 111.1 nM	0.756	–
[14], 333.3 nM	1.08	–
[14], 1000 nM	0.765	–
[14], 3000 nM	1.18	–

Cc1c2ccncc2c(C)c2c1[nH]c1ccccc12 [Ellipticine]
Conditions	phenotypic distance	surviving fraction
[1], 4.1 nM	–	1.06
[1], 12.3 nM	–	0.896
[1], 37 nM	–	0.936
[1], 111.1 nM	–	0.958
[1], 333.3 nM	–	0.912
[1], 1000 nM	–	0.784
[1], 3000 nM	–	0.473
[2], 4.1 nM	–	0.991
[2], 12.3 nM	–	1.07
[2], 37 nM	–	0.888
[2], 111.1 nM	–	0.831
[2], 333.3 nM	–	0.754
[2], 1000 nM	–	0.72
[2], 3000 nM	–	0.499
[3], 4.1 nM	–	1.11
[3], 12.3 nM	–	1.11
[3], 37 nM	–	1.08
[3], 111.1 nM	–	1.05
[3], 333.3 nM	–	0.967
[3], 1000 nM	–	0.668
[3], 3000 nM	–	0.352
[4], 4.1 nM	–	1.02
[4], 12.3 nM	–	0.977
[4], 37 nM	–	1.07
[4], 111.1 nM	–	0.963
[4], 333.3 nM	–	0.768
[4], 1000 nM	–	0.648
[4], 3000 nM	–	0.395
[5], 4.1 nM	–	1.07
[5], 12.3 nM	–	0.94
[5], 37 nM	–	1.04
[5], 111.1 nM	–	0.952
[5], 333.3 nM	–	0.935
[5], 1000 nM	–	0.753
[5], 3000 nM	–	0.534
[6], 4.1 nM	–	0.88
[6], 12.3 nM	–	0.933
[6], 37 nM	–	0.926
[6], 111.1 nM	–	0.959
[6], 333.3 nM	–	0.867
[6], 1000 nM	–	0.784
[6], 3000 nM	–	0.409
[7], 4.1 nM	–	1.13
[7], 12.3 nM	–	1.11
[7], 37 nM	–	1.08
[7], 111.1 nM	–	1.11
[7], 333.3 nM	–	1.3
[7], 1000 nM	–	0.787
[7], 3000 nM	–	0.649
[8], 4.1 nM	0.815	–
[8], 12.3 nM	0.556	–
[8], 37 nM	0.741	–
[8], 111.1 nM	0.932	–
[8], 333.3 nM	1.52	–
[8], 1000 nM	2.23	–
[8], 3000 nM	4.47	–
[9], 4.1 nM	1.16	–
[9], 12.3 nM	1.17	–
[9], 37 nM	1.79	–
[9], 111.1 nM	2.04	–
[9], 333.3 nM	2.29	–
[9], 1000 nM	2.28	–
[9], 3000 nM	2.98	–
[10], 4.1 nM	0.578	–
[10], 12.3 nM	0.641	–
[10], 37 nM	0.588	–
[10], 111.1 nM	0.478	–
[10], 333.3 nM	0.804	–
[10], 1000 nM	1.01	–
[10], 3000 nM	2.73	–
[11], 4.1 nM	0.486	–
[11], 12.3 nM	0.52	–
[11], 37 nM	0.379	–
[11], 111.1 nM	0.662	–
[11], 333.3 nM	0.789	–
[11], 1000 nM	1.24	–
[11], 3000 nM	2.27	–
[12], 4.1 nM	0.723	–
[12], 12.3 nM	0.43	–
[12], 37 nM	0.492	–
[12], 111.1 nM	0.978	–
[12], 333.3 nM	1.01	–
[12], 1000 nM	1.43	–
[12], 3000 nM	2.39	–
[13], 4.1 nM	1.05	–
[13], 12.3 nM	0.752	–
[13], 37 nM	1.12	–
[13], 111.1 nM	1.64	–
[13], 333.3 nM	1.87	–
[13], 1000 nM	2.3	–
[13], 3000 nM	4.58	–
[14], 4.1 nM	1.04	–
[14], 12.3 nM	0.711	–
[14], 37 nM	0.462	–
[14], 111.1 nM	0.869	–
[14], 333.3 nM	1.18	–
[14], 1000 nM	1.47	–
[14], 3000 nM	1.7	–
